ChEMBL document CHEMBL5365443, “Synthesis and biological evaluation of simplified ajudazol derivatives reveal potent 5-lipoxygenase inhibition and considerable apoptotic activity in neuroblastoma cells” (Bioorg Med Chem Lett, 2023)
The source made the active and inactive calls. The calls are words filed in the database; no cut-off is given here.

Tests used:
B104 [1] = experiment: Upregulation of ICDH mRNA expression in rat B104 cells; assay type: functional, cell-based
B104 [2] = experiment: Upregulation of […] mRNA expression in rat B104 cells; assay type: functional, cell-based
B104 [3] = experiment: Upregulation of LDH mRNA expression in rat B104 cells; assay type: functional, cell-based
B104 [4] = experiment: Upregulation of NADH mRNA expression in rat B104 cells; assay type: functional, cell-based
B104 [5] = experiment: Effect on NADH:UQ oxidoreductase expression in rat B104 cells; assay type: functional, cell-based
B104 [6] = experiment: Antiproliferative activity against rat B104 cells assessed as reduction in cell growth by MTT assay; assay type: functional, cell-based
Prostaglandin E synthase = target: T1, Prostaglandin E synthase (Homo sapiens, UniProt O14684); experiment: Inhibition of mPGES-1 (unknown origin)
T1 sequence (O14684 whole entry): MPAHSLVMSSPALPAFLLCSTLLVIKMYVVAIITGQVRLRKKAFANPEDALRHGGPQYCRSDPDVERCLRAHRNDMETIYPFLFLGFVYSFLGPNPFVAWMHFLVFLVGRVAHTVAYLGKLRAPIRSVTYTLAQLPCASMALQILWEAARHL

B104 [7] = experiment: Induction of apoptosis in rat B104 cells assessed as DNA fragmentation at 10 uM by DNA laddering assay; assay type: functional, cell-based
1321N1 = experiment: Antiproliferative activity against human 1321N1 cells assessed as inhibition of cell growth by MTT assay; assay type: functional, cell-based
B104 [8] = experiment: Induction of apoptosis in rat B104 cells assessed as DNA fragmentation at 100 uM by DNA laddering assay; assay type: functional, cell-based
[9] = target: T2, Polyunsaturated fatty acid 5-lipoxygenase (Homo sapiens, UniProt P09917); experiment: Inhibition of 5-LO (unknown origin)
T2 sequence (P09917 whole entry): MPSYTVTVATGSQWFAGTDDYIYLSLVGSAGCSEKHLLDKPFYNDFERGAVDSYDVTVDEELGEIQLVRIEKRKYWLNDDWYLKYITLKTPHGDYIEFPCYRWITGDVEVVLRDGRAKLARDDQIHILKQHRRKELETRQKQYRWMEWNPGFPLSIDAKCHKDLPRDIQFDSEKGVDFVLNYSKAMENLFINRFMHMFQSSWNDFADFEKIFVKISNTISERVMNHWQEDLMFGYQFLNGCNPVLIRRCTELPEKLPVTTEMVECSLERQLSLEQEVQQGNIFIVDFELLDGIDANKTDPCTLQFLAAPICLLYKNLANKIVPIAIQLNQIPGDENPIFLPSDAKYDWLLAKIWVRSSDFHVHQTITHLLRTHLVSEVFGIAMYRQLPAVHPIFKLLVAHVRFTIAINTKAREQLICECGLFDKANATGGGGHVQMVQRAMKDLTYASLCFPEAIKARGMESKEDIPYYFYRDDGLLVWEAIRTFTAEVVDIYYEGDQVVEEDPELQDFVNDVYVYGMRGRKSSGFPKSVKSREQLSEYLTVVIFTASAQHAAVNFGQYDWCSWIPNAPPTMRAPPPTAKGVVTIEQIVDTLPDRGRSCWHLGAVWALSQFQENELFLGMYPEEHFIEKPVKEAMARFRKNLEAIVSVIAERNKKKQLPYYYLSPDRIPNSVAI

[10] = target: T2, Polyunsaturated fatty acid 5-lipoxygenase; experiment: Inhibition of 5-LO in human neutrophils; assay type: cell-based, Neutrophil
[11] = Drug degradation in methanol assessed as half life; assay type: ADME
B104 [12] = experiment: Antiproliferative activity against rat B104 cells assessed as reduction in cell growth at 10 to 1000 nM; assay type: functional, cell-based; conditions: dose 10-1000 nM
SH-SY5Y = experiment: Antiproliferative activity against human SH-SY5Y cells assessed as reduction in cell growth at 10 to 1000 nM; assay type: functional, cell-based; conditions: dose 10-1000 nM
B104 [13] = experiment: Upregulation of LDH level in rat B104 cells at 10 nM; assay type: functional, cell-based
B104 [14] = experiment: Upregulation of OGDH level in rat B104 cells at 10 nM; assay type: functional, cell-based
B104 [15] = experiment: Upregulation of ICDH level in rat B104 cells at 10 nM; assay type: functional, cell-based

IC50 (Prostaglandin E synthase) | IC50 [9] | IC50 [10] | half-life [11] | SMILES | Activity (B104 [1]) | Activity (B104 [2]) | Activity (B104 [3]) | Activity (B104 [4]) | Activity (B104 [5]) | Activity (B104 [6]) | Activity (B104 [7]) | IC50 (1321N1) | Activity (B104 [8]) | Activity (B104 [12]) | Activity (SH-SY5Y) | Activity (B104 [13]) | Activity (B104 [14]) | Activity (B104 [15])
3.2 µM | 1.1 µM | 2.5 µM | ~168 h | C=C(C/C=C\C=C/CC/C=C/CN(C)C(=O)/C=C(\C)OC)c1nc(C[C@@H](C)[C@H]2OC(=O)c3c(ccc(C)c3O)[C@@H]2O)co1 | – | – | – | – | – | Active | Active | 9.4 µM | inactive | Active | Active | – | – | –
18.6 µM | 1 µM | 5.2 µM | – | C=C(C/C=C\C=C/CC/C=C/CN(C)C(=O)/C=C(\C)OC)c1nc(C[C@H](C)[C@@H]2CC[C@@H](C)C[C@H]2O)co1 | – | – | – | – | – | Active | Active | 3.3 µM | inactive | Active | Active | inactive | Active | Active

Continued, compound first:

SMILES | IC50 (Prostaglandin E synthase) | IC50 [9] | IC50 [10] | half-life [11] | Activity (B104 [1]) | Activity (B104 [2]) | Activity (B104 [3]) | Activity (B104 [4]) | Activity (B104 [5]) | Activity (B104 [6]) | Activity (B104 [7]) | IC50 (1321N1) | Activity (B104 [8]) | Activity (B104 [12]) | Activity (SH-SY5Y) | Activity (B104 [13]) | Activity (B104 [14]) | Activity (B104 [15])
C=C(I)CCO[Si](CC)(CC)CC | – | – | – | – | Active | Active | inactive | Active | Active | – | – | – | – | – | – | – | – | –
C=C(C/C=C\C=C/CC/C=C/CN(C)C(=O)/C=C(\C)OC)c1ncco1 | > 30 µM | 24.5 µM | > 30 µM | – | – | – | – | – | – | – | – | 4.3 µM | – | – | – | – | – | –
CO/C(C)=C/C(=O)N(C)C/C=C/CC/C=C\C=C/C[C@@H](C)c1nc(C[C@@H](C)[C@H]2OC(=O)c3c(ccc(C)c3O)[C@@H]2O)co1 | – | 6.9 µM | 1.6 µM | – | – | – | – | – | – | – | – | – | – | – | – | – | – | –
